Assay results published in paper PMC11018007, “Synthesis, carbonic anhydrase inhibition studies and modelling investigations of phthalimide–hydantoin hybrids” (Journal of Enzyme Inhibition and Medicinal Chemistry, 2024).

Legend:
hCA VII = target: T1, hCA VII (Homo sapiens, UniProt P43166); test: stopped-flow CO2 hydrase assay; assay type: biochemical
T1 construct: gene CA7; in-house recombinant protein; construct not described here
Description: stopped-flow CO2 hydrase assay on hCA VII

hCA IX = target: T2, hCA IX (Homo sapiens, UniProt Q16790); test: stopped-flow CO2 hydrase assay; assay type: biochemical
T2 construct: gene CA9
Description: stopped-flow CO2 hydrase assay on hCA IX

[1] = stopped-flow CO2 hydrase assay; assay type: biochemical, Homo sapiens; settings: read-out: KI (μM) ^a / hCA I
Description: (§1) stopped-flow CO2 hydrase assay on hCA II

hCA I = target: T3, hCA I (Homo sapiens, UniProt P00915); test: stopped-flow CO2 hydrase assay; assay type: biochemical
T3 construct: gene CA1; recombinant from plasmid pACA/hCA I, E. coli BL21 (DE3)
Description: stopped-flow CO2 hydrase assay on hCA I

hCA VI = target: T4, hCA VI (Homo sapiens, UniProt P23280); test: stopped-flow CO2 hydrase assay; assay type: biochemical
T4 construct: gene CA6; secreted isoform; in-house recombinant protein; construct not described here
Description: stopped-flow CO2 hydrase assay on hCA VI

hCA II = target: T5, hCA II (Homo sapiens, UniProt P00918); test: stopped-flow CO2 hydrase assay; assay type: biochemical
T5 construct: gene CA2; recombinant from plasmid pACA/hCA II, E. coli BL21 (DE3)
Description: as §1

T1 sequence (P43166 whole entry): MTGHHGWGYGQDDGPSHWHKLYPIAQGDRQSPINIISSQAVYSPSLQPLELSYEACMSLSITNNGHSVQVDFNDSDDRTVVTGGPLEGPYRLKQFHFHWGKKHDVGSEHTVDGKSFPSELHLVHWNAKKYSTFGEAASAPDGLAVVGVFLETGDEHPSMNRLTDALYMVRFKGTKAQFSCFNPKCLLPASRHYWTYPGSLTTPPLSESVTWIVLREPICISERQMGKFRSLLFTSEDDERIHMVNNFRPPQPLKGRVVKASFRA
T4 sequence (P23280 18-308): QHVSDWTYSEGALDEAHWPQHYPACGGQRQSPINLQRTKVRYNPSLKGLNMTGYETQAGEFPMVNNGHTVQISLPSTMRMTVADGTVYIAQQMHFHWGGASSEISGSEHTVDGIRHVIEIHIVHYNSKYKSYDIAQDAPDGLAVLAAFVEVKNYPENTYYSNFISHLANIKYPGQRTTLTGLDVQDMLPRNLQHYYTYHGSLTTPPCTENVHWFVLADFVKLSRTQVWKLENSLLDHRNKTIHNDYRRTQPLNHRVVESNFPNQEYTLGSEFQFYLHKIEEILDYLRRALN
T3 sequence (P00915 2-261): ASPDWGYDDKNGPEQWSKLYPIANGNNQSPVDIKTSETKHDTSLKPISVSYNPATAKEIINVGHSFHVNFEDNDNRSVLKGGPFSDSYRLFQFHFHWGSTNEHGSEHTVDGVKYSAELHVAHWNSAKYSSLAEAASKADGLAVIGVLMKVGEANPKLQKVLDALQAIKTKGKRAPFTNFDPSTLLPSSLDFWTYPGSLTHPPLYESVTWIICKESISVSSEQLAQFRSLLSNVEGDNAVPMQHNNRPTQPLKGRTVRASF

Row | Ki (hCA VII) [µM] | Ki (hCA IX) [µM] | Ki [1] [µM] | Ki (hCA I) [µM] | Ki (hCA VI) [µM] | Ki (hCA II) [µM] | SMILES
1 | 59.1 | 4.82 | > 100 | > 100 | 48.5 |  | N#Cc1ccc(CN2C(=O)CN(N3C(=O)c4ccccc4C3=O)C2=O)cc1 [6e, 4-((3-(1,3-Dioxoisoindolin-2-yl)-2,5-dioxoimidazolidin-1-yl)methyl)benzonitrile]
2 | 13.9 | 4.06 |  | > 100 | 10.5 | 58.6 | O=C1CN(NC(=O)c2cc([N+](=O)[O-])ccc2C(=O)O)C(=O)N1 [compound 5, 2-((2,4-Dioxoimidazolidin-1-yl)carbamoyl)-4-nitrobenzoic acid]
3 | 26.3 | 4.58 | > 100 | > 100 | 49.8 |  | O=C1CN(N2C(=O)c3ccc([N+](=O)[O-])cc3C2=O)C(=O)N1Cc1ccc([N+](=O)[O-])cc1 [6d, 5-Nitro-2-(3-(4-nitrobenzyl)-2,4-dioxoimidazolidin-1-yl)isoindoline-1,3-dione]
4 | 0.075 | 0.331 |  | > 100 | 0.405 | 6.94 | O=C1CN(N2C(=O)c3ccccc3C2=O)C(=O)N1 [3a, Potassium 3-(1,3-dioxoisoindolin-2-yl)-2,5-dioxoimidazolidin-1-ide]
5 | 0.163 | 0.488 |  | > 100 | 0.701 | 8.99 | O=C1CN(N2C(=O)c3ccc([N+](=O)[O-])cc3C2=O)C(=O)N1 [3b, Potassium 3-(5-nitro-1,3-dioxoisoindolin-2-yl)-2,5-dioxoimidazolidin-1-ide]
6 | 33.7 | 3.73 | > 100 | > 100 | 57.7 |  | O=C1CN(N2C(=O)c3ccccc3C2=O)C(=O)N1Cc1ccccc1 [6a, 2-(3-Benzyl-2,4-dioxoimidazolidin-1-yl)isoindoline-1,3-dione]
7 | 37.6 | 5.68 | > 100 | > 100 | 50.2 |  | O=C1CN(N2C(=O)c3ccccc3C2=O)C(=O)N1Cc1ccc([N+](=O)[O-])cc1 [6c, 2-(3-(4-Nitrobenzyl)-2,4-dioxoimidazolidin-1-yl)isoindoline-1,3-dione]
8 | 50.5 | 6.49 | > 100 | > 100 | 64.3 |  | N#Cc1ccc(CN2C(=O)CN(N3C(=O)c4ccc([N+](=O)[O-])cc4C3=O)C2=O)cc1 [6f, 4-((3-(5-Nitro-1,3-dioxoisoindolin-2-yl)-2,5-dioxoimidazolidin-1-yl)methyl)benzonitrile]
9 | 45.9 | 2.73 | > 100 | > 100 | 40.2 |  | O=C1CN(N2C(=O)c3ccc([N+](=O)[O-])cc3C2=O)C(=O)N1Cc1ccccc1 [6b, 2-(3-Benzyl-2,4-dioxoimidazolidin-1-yl)-5-nitroisoindoline-1,3-dione]
